Test: Toxicokinetics and tissue disposition of total [14C] radioactivity after a single intratracheal dose of [14C]-PCB52 (0.157 mg/kg) in pregnant rats at GD 11±1
Type: in vivo, Sprague–Dawley rats
Experimental: Female Sprague–Dawley rats (8 weeks old) weighing 237–269.7 g (mean = 247.5 g) (Envigo RMS, LLC, Indianapolis, IN) were used for this study. All animal experiments were performed following the protocols evaluated and approved by the University of Iowa Institutional Animal Care and Use Committee (approval number 3091097). After arrival, the animals were acclimated for 7 days. The animals were housed in a light and temperature-controlled environment with ad libitum access to food and water during quarantine and throughout the study. Timed pregnancy was achieved by harem mating. , Briefly, one male and two female rats were placed together in the evening and checked for vaginal plug the following day. If vaginal plug was present, the male was removed from the breeding cage, and the gestation day 0 (GD 0), 0-day post coitum was assigned. Pregnancies were confirmed by ultrasound scan at GD 9. The dams were exposed at GD 11 (±1 day) to capture the period of early organogenesis and hormonal function, which falls within week 3 of human embryonic development. ,− On the day of the experiment, pregnant rats were intratracheally administered an average of 40 μg (range, 35–45 μg) of [^14C]-PCB52 in 100 μL of exposure solution. Although the dose used in this study exceeded the tolerable daily intake (TDI) of PCBs for healthy individuals, which is 1.6 μg per day for an individual weighing 80 kg, the use of higher acute doses has been established in toxicological studies intended for risk assessment. The intratracheal instillation method was chosen for administering [^14C]-PCB52 to represent inhalation exposures, capture exhaled concentration, and efficiently utilize the limited availability of the cost-intensive radiolabeled PCB52. , Although inhalation exposure would better represent real-world exposures to airborne LC-PCBs, it would not allow us to accurately measure the amount of PCB52 exhaled into the air after exposure and is experimentally infeasible. […] All intratracheal instillations were done under light anesthesia, achieved using a 4% isoflurane concentration via a Fortec vaporizer (Cyprane, Keighley, UK). The animals recovered from anesthesia within 1 min. Subsequently, the animals were housed within a cylindrical glass chamber measuring 2 L in volume, equipped with glass drainage mechanisms to facilitate urine collection and a metallic screen to segregate urine from feces (as in Figure S1). Air was drawn from the chamber at 6.0 L/min through a cartridge containing the XAD-2 polymeric resin to capture any exhaled [^14C]-PCB52. For periods longer than 24 h postexposure, exposed dams were placed in a metabolic cage, which was fitted with a cartridge containing XAD-2 to capture exhaled [^14C]-PCB52 as in other end points.
Maternal blood, urine, and feces samples were collected immediately before and at 0.21, 1.67, 12, 24, 48, and 96 h after lung dosing. The exposed dams were euthanized using 4% isoflurane, followed by cervical dislocation and exsanguination via a cardiac puncture. Euthanasia was consistently performed during the light cycle. Dams’ fur was wiped and analyzed for radioactivity. Using the retro-orbital blood collection method, 0.5–1.5 mL ([…] of an exposed pregnant rat’s body weight) of blood sample was collected from each of the dams until the individual dams were necropsied for whole-body tissue harvesting. At the end of the exposure period, the chamber’s interior walls were rinsed separately with water and acetone/hexane (25 – 45 mL) and wiped to measure residues. From the collected whole blood samples, 100 μL were aliquoted into three vials each, and the remaining blood was allowed to clot at room temperature before being centrifuged to yield serum. The placentas, developing fetuses, and whole-body tissue samples were harvested immediately before exposure and at 0.21, 1.67, 12, 24, and 96 h postexposure. […]

[1] = Salivary gland, 0.21 h post-exposure
[2] = Salivary gland, 1.67 h post-exposure
[3] = Salivary gland, 12 h post-exposure
[4] = Salivary gland, 24 h post-exposure
[5] = Salivary gland, 96 h post-exposure
[6] = mammary gland/MS (maternal serum)
[7] = ratios of toxicokinetic parameters

Compound: Clc1ccc(Cl)c(-c2cc(Cl)ccc2Cl)c1 [PCB52, 2,2′,5,5′-Tetrachlorobiphenyl]
- Percent tissue distribution (Ovary, 0.21 h post-exposure): 0.20%
- Conc. per mg wet tissue (Ovary, 1.67 h post-exposure): 7.08 dpm/mg
- Percent tissue distribution (Ovary, 1.67 h post-exposure): 0.08%
- Conc. per mg wet tissue (Ovary, 12 h post-exposure): 1.61 dpm/mg
- Percent tissue distribution (Ovary, 12 h post-exposure): 0.02%
- Conc. per mg wet tissue (Ovary, 24 h post-exposure): 5.24 dpm/mg
- Percent tissue distribution (Ovary, 24 h post-exposure): 0.05%
- Percent tissue distribution (Ovary, 96 h post-exposure): 0.02%
- AUC_%Extrap (Pancreas): 37.26%
- Terminal elimination half-life (t1/2) (Pancreas): 67.74 h
- Conc. per mg wet tissue (Pancreas, 0.21 h post-exposure): 14.81 dpm/mg
- Percent tissue distribution (Pancreas, 0.21 h post-exposure): 0.91%
- Conc. per mg wet tissue (Pancreas, 1.67 h post-exposure): 4.88 dpm/mg
- Percent tissue distribution (Pancreas, 1.67 h post-exposure): 0.39%
- Conc. per mg wet tissue (Pancreas, 12 h post-exposure): 1.83 dpm/mg
- Percent tissue distribution (Pancreas, 12 h post-exposure): 0.07%
- Conc. per mg wet tissue (Pancreas, 24 h post-exposure): 5.17 dpm/mg
- Percent tissue distribution (Pancreas, 24 h post-exposure): 0.30%
- Conc. per mg wet tissue (Pancreas, 96 h post-exposure): 38.84 dpm/mg
- Percent tissue distribution (Pancreas, 96 h post-exposure): 0.14%
- Tmax (Pituitary gland): 96 h
- AUC_%Extrap (Rectal Amp.): 62.17%
- Terminal elimination half-life (t1/2) (Rectal Amp.): 133.61 h
- AUC_%Extrap (Salivary gland): 44.09%
- Terminal elimination half-life (t1/2) (Salivary gland): 84.60 h
- Tmax (Salivary gland): ≤ 0.21 h
- Conc. per mg wet tissue [1]: 8.48 dpm/mg
- Percent tissue distribution [1]: 0.39%
- Conc. per mg wet tissue [2]: 2.93 dpm/mg
- Percent tissue distribution [2]: 0.18%
- Conc. per mg wet tissue [3]: 1.44 dpm/mg
- Percent tissue distribution [3]: 0.04%
- Conc. per mg wet tissue [4]: 2.06 dpm/mg
- Percent tissue distribution [4]: 0.06%
- Conc. per mg wet tissue [5]: 0.34 dpm/mg
- Percent tissue distribution [5]: 0.04%
- AUC_%Extrap (Skin): 30.85%
- Terminal elimination half-life (t1/2) (Skin): 58.90 h
- AUC_%Extrap (Small Intestine): 25.66%
- Terminal elimination half-life (t1/2) (Small Intestine): 47.33 h
- AUC_%Extrap (Spleen): 35.06%
- Terminal elimination half-life (t1/2) (Spleen): 55.79 h
- Conc. per mg wet tissue (Spleen, 0.21 h post-exposure): 13.12 dpm/mg
- Percent tissue distribution (Spleen, 0.21 h post-exposure): 0.29%
- Conc. per mg wet tissue (Spleen, 1.67 h post-exposure): 3.05 dpm/mg
- Percent tissue distribution (Spleen, 1.67 h post-exposure): 0.12%
- Conc. per mg wet tissue (Spleen, 12 h post-exposure): 2.62 dpm/mg
- Percent tissue distribution (Spleen, 12 h post-exposure): 0.04%
- Conc. per mg wet tissue (Spleen, 24 h post-exposure): 5.75 dpm/mg
- Percent tissue distribution (Spleen, 24 h post-exposure): 0.07%
- Conc. per mg wet tissue (Spleen, 96 h post-exposure): 0.87 dpm/mg
- Percent tissue distribution (Spleen, 96 h post-exposure): 0.03%
- AUC_%Extrap (Stomach): 15.03%
- Terminal elimination half-life (t1/2) (Stomach): 32.02 h
- Tmax (Stomach): ≤ 0.21 h
- Conc. per mg wet tissue (Stomach, 0.21 h post-exposure): 36.55 dpm/mg
- Percent tissue distribution (Stomach, 0.21 h post-exposure): 0.71%
- Conc. per mg wet tissue (Stomach, 1.67 h post-exposure): 17.01 dpm/mg
- Percent tissue distribution (Stomach, 1.67 h post-exposure): 0.23%
- Conc. per mg wet tissue (Stomach, 12 h post-exposure): 4.80 dpm/mg
- Percent tissue distribution (Stomach, 12 h post-exposure): 0.33%
- Conc. per mg wet tissue (Stomach, 24 h post-exposure): 6.56 dpm/mg
- Percent tissue distribution (Stomach, 24 h post-exposure): 0.44%
- Conc. per mg wet tissue (Stomach, 96 h post-exposure): 2.28 dpm/mg
- Percent tissue distribution (Stomach, 96 h post-exposure): 0.10%
- AUC_%Extrap (Thymus): 25.14%
- Terminal elimination half-life (t1/2) (Thymus): 53.40 h
- AUC_%Extrap (Thyroid): 12.95%
- Terminal elimination half-life (t1/2) (Thyroid): 37.74 h
- Conc. per mg wet tissue (Tongue, 0.21 h post-exposure): 0.16 dpm/mg
- Percent tissue distribution (Tongue, 0.21 h post-exposure): 0.67%
- Conc. per mg wet tissue (Tongue, 1.67 h post-exposure): 4.42 dpm/mg
- Percent tissue distribution (Tongue, 1.67 h post-exposure): 0.0003%
- Conc. per mg wet tissue (Tongue, 12 h post-exposure): 1.08 dpm/mg
- Percent tissue distribution (Tongue, 12 h post-exposure): 0.06%
- Conc. per mg wet tissue (Tongue, 24 h post-exposure): 1.03 dpm/mg
- Percent tissue distribution (Tongue, 24 h post-exposure): 0.05%
- Conc. per mg wet tissue (Tongue, 96 h post-exposure): 0.16 dpm/mg
- Percent tissue distribution (Tongue, 96 h post-exposure): 0.01%
- Conc. per mg wet tissue (Trachea, 0.21 h post-exposure): 142.06 dpm/mg
- Percent tissue distribution (Trachea, 0.21 h post-exposure): 0.83%
- Conc. per mg wet tissue (Trachea, 1.67 h post-exposure): 40.98 dpm/mg
- Percent tissue distribution (Trachea, 1.67 h post-exposure): 0.24%
- Conc. per mg wet tissue (Trachea, 12 h post-exposure): 13.20 dpm/mg
- Percent tissue distribution (Trachea, 12 h post-exposure): 0.08%
- Conc. per mg wet tissue (Trachea, 24 h post-exposure): 6.29 dpm/mg
- Percent tissue distribution (Trachea, 24 h post-exposure): 0.04%
- Conc. per mg wet tissue (Trachea, 96 h post-exposure): 1.03 dpm/mg
- Percent tissue distribution (Trachea, 96 h post-exposure): 0.01%
- AUC_%Extrap (Uterus): 17.37%
- Terminal elimination half-life (t1/2) (Uterus): 34.85 h
- Conc. per mg wet tissue (Uterus, 0.21 h post-exposure): 0.37 dpm/mg
- Percent tissue distribution (Uterus, 0.21 h post-exposure): 0.21%
- Conc. per mg wet tissue (Uterus, 1.67 h post-exposure): 2.43 dpm/mg
- Percent tissue distribution (Uterus, 1.67 h post-exposure): 0.11%
- Conc. per mg wet tissue (Uterus, 12 h post-exposure): 0.93 dpm/mg
- Percent tissue distribution (Uterus, 12 h post-exposure): 0.06%
- Conc. per mg wet tissue (Uterus, 24 h post-exposure): 2.20 dpm/mg
- Percent tissue distribution (Uterus, 24 h post-exposure): 0.16%
- Conc. per mg wet tissue (Uterus, 96 h post-exposure): 0.37 dpm/mg
- Percent tissue distribution (Uterus, 96 h post-exposure): 0.13%
- AUC_% extrap (amniotic fluid): 7.8%
- AUC_%Extrap (amniotic fluid): 8.11%
- Terminal elimination half-life (t1/2) (amniotic fluid): 26.38 h
- maternal serum exposure ratio (amniotic fluid): 0.05
- AUC0–96h ratio (brain/MS (maternal serum)): 0.672
- C max ratio (brain/MS (maternal serum)): 0.598
- AUC0–96h ratio (brain/thyroid): 0.276
- C max ratio (brain/thyroid): 0.298
- concentration in brown adipose relative to white adipose (brown vs white adipose): five times higher
- biological half-life (dams): less than 2 days
- biological half-life (developing fetuses): less than 2 days
- AUC0‑∞ ratio (fetus/AF (amniotic fluid)): 5.472
- AUC0–96h ratio (fetus/AF (amniotic fluid)): 5.405
- C max ratio (fetus/AF (amniotic fluid)): 5.767
- AUC0–96h ratio (fetus/MS (maternal serum)): 0.100
- C max ratio (fetus/MS (maternal serum)): 0.135
- AUC0‑∞ ratio (fetus/mammary gland): 46.45
- AUC0–96h ratio (fetus/mammary gland): 43.42
- C max ratio (fetus/mammary gland): 11.47
- AUC0‑∞ ratio (fetus/ovary): 0.078
- AUC0–96h ratio (fetus/ovary): 0.094
- C max ratio (fetus/ovary): 0.163
- AUC0–96h ratio (fetus/pituitary): 0.026
- C max ratio (fetus/pituitary): 0.052
- AUC0‑∞ ratio (fetus/placenta): 0.569
- AUC0–96h ratio (fetus/placenta): 0.538
- C max ratio (fetus/placenta): 0.778
- AUC0‑∞ ratio (fetus/thymus): 0.125
- AUC0–96h ratio (fetus/thymus): 0.152
- C max ratio (fetus/thymus): 0.314
- AUC0‑∞ ratio (fetus/thyroid): 8.805
- AUC0–96h ratio (fetus/thyroid): 8.445
- C max ratio (fetus/thyroid): 8.150
- AUC0‑∞ ratio [6]: 12.59
- AUC0–96h ratio [6]: 12.52
- C max ratio [6]: 2.822
- AUC_% extrap (maternal serum): 14.2%
- blood-to-plasma ratio (observed experimental): 0.53
- AUC0–96h ratio (ovary/MS (maternal serum)): 3.043
- C max ratio (ovary/MS (maternal serum)): 1.512
- AUC0–96h ratio (pituitary/MS (maternal serum)): 11.289
- C max ratio (pituitary/MS (maternal serum)): 4.741
- AUC0–96h ratio (pituitary/thymus): 5.933
- C max ratio (pituitary/thymus): 4.114
- AUC_% extrap (placenta): 4.1%
- AUC_%Extrap (placenta): 4.14%
- Terminal elimination half-life (t1/2) (placenta): 21.11 h
- maternal serum exposure ratio (placenta): 0.5
- AUC0‑∞ ratio (placenta/MS (maternal serum)): 0.477
- AUC0–96h ratio (placenta/MS (maternal serum)): 0.536
- C max ratio (placenta/MS (maternal serum)): 0.316
- time at which brown/white adipose concentration ratio reached unity (postexposure): 24 h
- amniotic fluid-to-fetus ratio [7]: < 1
- fetus-to-amniotic fluid ratio [7]: > 5
- AUC0‑∞ ratio (thymus/MS (maternal serum)): 2.169
- AUC0–96h ratio (thymus/MS (maternal serum)): 1.903
- C max ratio (thymus/MS (maternal serum)): 1.152
- AUC0‑∞ ratio (thyroid/MS (maternal serum)): 2.387
- AUC0–96h ratio (thyroid/MS (maternal serum)): 2.435
- C max ratio (thyroid/MS (maternal serum)): 2.005
- AUC0‑∞ ratio (uterus/MS (maternal serum)): 0.917
- AUC0–96h ratio (uterus/MS (maternal serum)): 0.888
- C max ratio (uterus/MS (maternal serum)): 0.296
- AUC0‑∞ ratio (uterus/ovary): 0.262
- AUC0–96h ratio (uterus/ovary): 0.292
- C max ratio (uterus/ovary): 0.196

Reference: PMC12794188, “Maternal–Fetal Transfer and Toxicokinetics of 2,2′,5,5′-Tetrachlorobiphenyl, [^14C]-PCB52, Following Intratracheal Administration” (Chemical Research in Toxicology, 2025)
